Type in all cases: biochemical
One assay has as its target T1, PIP4K2B (Homo sapiens, UniProt P78356).
T1 construct: made in house; host or cells: E. coli
T1 sequence (P78356 1-416): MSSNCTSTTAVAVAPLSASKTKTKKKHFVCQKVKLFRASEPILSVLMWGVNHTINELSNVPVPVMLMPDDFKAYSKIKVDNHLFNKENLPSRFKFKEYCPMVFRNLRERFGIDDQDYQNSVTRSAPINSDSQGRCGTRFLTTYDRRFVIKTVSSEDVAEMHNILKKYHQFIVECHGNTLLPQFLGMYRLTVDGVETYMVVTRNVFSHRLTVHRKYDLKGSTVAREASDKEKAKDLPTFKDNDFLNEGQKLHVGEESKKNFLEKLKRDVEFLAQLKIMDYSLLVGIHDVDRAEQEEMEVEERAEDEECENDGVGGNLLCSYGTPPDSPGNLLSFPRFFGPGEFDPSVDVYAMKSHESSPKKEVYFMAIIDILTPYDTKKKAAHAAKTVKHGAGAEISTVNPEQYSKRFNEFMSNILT
In words: Trans-FI P kinase assay PIP4K2B (Table 4). Particulars: compounds listed under IC50 bins; read-out: Trans-FI P kinase assays: PIP4K2B IC50. The essentials:
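Transcreener FI detection (Ex 584/Em 623) of GDP, converted via calibration curve, gives IC50 from residual activity versus log concentration (highest 4.8 μM). Reaction: 80 μM PI5P plus DOPE carrier, 100 μM GTP, 5 nM GST-tagged enzyme, pH 7.3 HEPES with MgCl2 and 5% DMSO, 2 h after 1 h enzyme-compound preincubation at 27° C.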

For assay [1], the target named is T2, PIP4K2A (Homo sapiens, UniProt P48426).
T2 sequence (P48426 1-406): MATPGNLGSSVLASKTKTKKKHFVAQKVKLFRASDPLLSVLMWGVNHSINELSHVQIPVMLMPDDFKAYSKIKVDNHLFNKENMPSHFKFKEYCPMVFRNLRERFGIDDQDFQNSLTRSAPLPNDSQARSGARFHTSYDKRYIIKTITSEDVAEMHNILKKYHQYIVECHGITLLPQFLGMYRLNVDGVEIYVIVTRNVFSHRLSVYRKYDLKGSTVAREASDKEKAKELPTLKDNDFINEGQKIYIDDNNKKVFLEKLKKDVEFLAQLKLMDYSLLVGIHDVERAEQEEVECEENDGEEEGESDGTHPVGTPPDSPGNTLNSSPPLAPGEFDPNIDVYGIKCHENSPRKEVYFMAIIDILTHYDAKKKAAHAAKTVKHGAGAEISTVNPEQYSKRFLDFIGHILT
In words: Kinase Assay PIP4K2 A (Table 2). Set-up: 4 nM PIP4K2A (full length protein, SignalChem); purchased SignalChem. Particulars: compounds listed under IC50 bins. The essentials:
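ADP-Glo luminescent read-out after 1 h room-temperature kinase reaction, started with 60 μM ATP solution following 15 min compound pre-incubation. Enzyme/substrate mix: 4 nM full-length PIP4K2A plus 100 μM PI(5)P diC8; buffer MOPS pH 7.2 with 25 mM MgCl2 and Tween 20. IC50 from 10-point, 3-fold titrations normalized to DMSO.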

For assay [2], the target named is T2, PIP4K2A. In words: ADP-glo kinase assay PIP4K 2A (Table 3). Set-up: made in house; host or cells: E. coli. Particulars: compounds listed under IC50 bins. The essentials:
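ADP-Glo luminescence detected ADP after 1 h RT reaction started by ATP (60 μM solution) on full-length PIP4K2A (4 nM in mix) and PI(5)P diC8 (100 μM in mix), preceded by 15 min enzyme-compound preincubation in MOPS pH 7.2/25 mM MgCl2. Percent inhibition versus DMSO over 10 concentrations fitted for IC50.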
On the technique in general: ADP-Glo first removes unused ATP, then detects ADP through luciferase.

The values below come from patent US11667651B2, “Aminopyridine derivatives as phosphatidylinositol phosphate kinase inhibitors” (HiberCell, Inc., priority 2017, dated 2023).

As for `CN(C)C(=O)c1ccc(-c2ccc(Nc3cnc4c(c3)N(C(=O)c3ccccn3)CCO4)nc2)cc1` [Example 95, N,N-dimethyl-4-(6-((1-picolinoyl-2,3-dihydro-1H-pyrido[2,3-b][1,4]oxazin-7-yl)amino)pyridin-3-yl)benzamide], the IC50 on PIP4K2B, at PIP4K2A [1] and on PIP4K2A [2] was 10 to 100 nM each time.

On to `CN(C)C(=O)c1ccc(-c2ccc(Nc3cnc4c(c3)N(C(=O)C(C)(C)CO)CCO4)nc2)cc1` [Example 96, 4-(6-((1-(3-hydroxy-2,2-dimethylpropanoyl)-2,3-dihydro-1H-pyrido[2,3-b][1,4]oxazin-7-yl)amino)pyridin-3-yl)-N,N-dimethylbenzamide], for which the results for the IC50 on PIP4K2B, at PIP4K2A [1] and against PIP4K2A [2] were 10 to 100 nM, 1 to 10 nM and 10 to 100 nM, respectively.

As to `CN(C)C(=O)c1ccc(-c2ccc(Nc3cncc(NC(=O)c4cccc(NC(=O)OC(C)(C)C)c4)c3)nc2)cc1` [Example 98, tert-butyl (3-((5-((5-(4-(dimethylcarbamoyl)phenyl)pyridin-2-yl)amino)pyridin-3-yl)carbamoyl)phenyl)carbamate], the values for the IC50 on PIP4K2B, at PIP4K2A [1] and against PIP4K2A [2] were 10 to 100 nM, 10 to 100 nM and 100 to 1000 nM, respectively.

Consider `CN(C)C/C=C/C(=O)Nc1cccc(C(=O)Nc2cncc(Nc3ccc(-c4ccc(C(=O)N(C)C)cc4)cn3)c2)c1` [Example 100, (E)-4-(6-((5-(3-(4-(dimethylamino)but-2-enamido)benzamido)pyridin-3-yl)amino)pyridin-3-yl)-N,N-dimethylbenzamide], for which the figures for the IC50 on PIP4K2B, against PIP4K2A [1] and against PIP4K2A [2] were 10 to 100 nM, 1 to 10 nM and 10 to 100 nM, respectively.

For `CN(C)C(=O)c1ccc(-c2ccc(Nc3cncc(NC(=O)CCc4cccc(NC(=O)OC(C)(C)C)c4)c3)nc2)cc1` [Example 101, tert-butyl (3-(3-((5-((5-(4-(dimethylcarbamoyl)phenyl)pyridin-2-yl)amino)pyridin-3-yl)amino)-3-oxopropyl)phenyl)carbamate], the concentration for half-maximal inhibition (IC50) on PIP4K2B is 10 to 100 nM; against PIP4K2A [1], 10 to 100 nM; against PIP4K2A [2], 100 to 1000 nM.

For `CN(C)C(=O)c1ccc(-c2ccc(Nc3cncc(NC(=O)CCc4cccc(N)c4)c3)nc2)cc1` [Example 102, 4-(6-((5-(3-(3-aminophenyl)propanamido)pyridin-3-yl)amino)pyridin-3-yl)-N,N-dimethylbenzamide], the IC50 lay within 10 to 100 nM on PIP4K2B, 1 to 10 nM on PIP4K2A [1] and 10 to 100 nM against PIP4K2A [2].

For the molecule `CN(C)C/C=C/C(=O)Nc1cccc(CCC(=O)Nc2cncc(Nc3ccc(-c4ccc(C(=O)N(C)C)cc4)cn3)c2)c1` [Example 103, (E)-4-(6-((5-(3-(3-(4-(dimethylamino)but-2-enamido)phenyl)propanamido)pyridin-3-yl)amino)pyridin-3-yl)-N,N-dimethylbenzamide], the results for the IC50 at PIP4K2B, at PIP4K2A [1] and against PIP4K2A [2] were 10 to 100 nM, 1 to 10 nM and 10 to 100 nM, respectively.

Turning to `CN(C)C(=O)c1ccc(-c2ccc(Nc3ccc(CNC(=O)c4cccc(NC(=O)OC(C)(C)C)c4)nc3)nc2)cc1` [Example 104, tert-butyl (3-(((5-((5-(4-(dimethylcarbamoyl)phenyl)pyridin-2-yl)amino)pyridin-2-yl)methyl)carbamoyl)phenyl)carbamate], the results for the IC50 at PIP4K2B, at PIP4K2A [1] and against PIP4K2A [2] were greater than 1000 nM, 100 to 1000 nM and greater than 1000 nM, respectively.

For the molecule `CN(C)C/C=C/C(=O)Nc1cccc(C(=O)NCc2ccc(Nc3ccc(-c4ccc(C(=O)N(C)C)cc4)cn3)cn2)c1` [Example 106, (E)-4-(6-((6-((3-(4-(dimethylamino)but-2-enamido)benzamido)methyl)pyridin-3-yl)amino)pyridin-3-yl)-N,N-dimethylbenzamide], the IC50 lay within 10 to 100 nM at PIP4K2B, 100 to 1000 nM on PIP4K2A [1] and 100 to 1000 nM at PIP4K2A [2].

As to `CN(C)C(=O)c1ccc(-c2ccc(Nc3cncc(NC(=O)CCc4cccc(NC(=O)CN)c4)c3)nc2)cc1` [Example 107, 4-(6-((5-(3-(3-(2-aminoacetamido)phenyl)propanamido)pyridin-3-yl)amino)pyridin-3-yl)-N,N-dimethylbenzamide], the IC50 at PIP4K2B is 10 to 100 nM; against PIP4K2A [1], 100 to 1000 nM; against PIP4K2A [2] it was 100 to 1000 nM.

With `CN(C)C/C=C/C(=O)NCC(=O)Nc1cccc(CCC(=O)Nc2cncc(Nc3ccc(-c4ccc(C(=O)N(C)C)cc4)cn3)c2)c1` [Example 108, (E)-4-(6-((5-(3-(3-(2-(4-(dimethylamino)but-2-enamido)acetamido)phenyl)propanamido)pyridin-3-yl)amino)pyridin-3-yl)-N,N-dimethylbenzamide], the IC50 on PIP4K2B is greater than 1000 nM; on PIP4K2A [1], 100 to 1000 nM; against PIP4K2A [2], 100 to 1000 nM.

For the molecule `CN(C)C(=O)c1ccc(-c2ccc(Nc3cncc(NC(=O)CCc4cccc(NC(=O)C5CCNCC5)c4)c3)nc2)cc1` [Example 109, N-(3-(3-((5-((5-(4-(dimethylcarbamoyl)phenyl)pyridin-2-yl)amino)pyridin-3-yl)amino)-3-oxopropyl)phenyl)piperidine-4-carboxamide], the IC50 on PIP4K2B lay in the range of 10 to 100 nM; against PIP4K2A [1], 1 to 10 nM; against PIP4K2A [2] it was 1 to 10 nM.

In the case of `CN(C)C/C=C/C(=O)N1CCC(C(=O)Nc2cccc(CCC(=O)Nc3cncc(Nc4ccc(-c5ccc(C(=O)N(C)C)cc5)cn4)c3)c2)CC1` [Example 110, (E)-1-(4-(dimethylamino)but-2-enoyl)-N-(3-(3-((5-((5-(4-(dimethylcarbamoyl)phenyl)pyridin-2-yl)amino)pyridin-3-yl)amino)-3-oxopropyl)phenyl)piperidine-4-carboxamide], the figures for the IC50 at PIP4K2B, against PIP4K2A [1] and at PIP4K2A [2] were greater than 1000 nM, 100 to 1000 nM and 100 to 1000 nM, respectively.

`CN(C)C(=O)c1ccc(-c2ccc(Nc3cncc(NC(=O)CCc4cccc(NC(=O)CCCCCN)c4)c3)nc2)cc1` [Example 111, 4-(6-((5-(3-(3-(6-aminohexanamido)phenyl)propanamido)pyridin-3-yl)amino)pyridin-3-yl)-N,N-dimethylbenzamide]: the IC50 is 10 to 100 nM on PIP4K2B, 1 to 10 nM against PIP4K2A [1] and 1 to 10 nM at PIP4K2A [2].

On to `CN(C)C/C=C/C(=O)NCCCCCC(=O)Nc1cccc(CCC(=O)Nc2cncc(Nc3ccc(-c4ccc(C(=O)N(C)C)cc4)cn3)c2)c1` [Example 112, (E)-4-(6-((5-(3-(3-(6-(4-(dimethylamino)but-2-enamido)hexanamido)phenyl)propanamido)pyridin-3-yl)amino)pyridin-3-yl)-N,N-dimethylbenzamide], for which the values for the IC50 on PIP4K2B, against PIP4K2A [1] and at PIP4K2A [2] were greater than 1000 nM, 100 to 1000 nM and 100 to 1000 nM, respectively.

On to `CN(C)C(=O)c1ccc(-c2ccc(Nc3cncc(NC(=O)c4cccc(NC(=O)CCOCCOCCN)c4)c3)nc2)cc1` [Example 113, 4-(6-((5-(3-(3-(2-(2-aminoethoxy)ethoxy)propanamido)benzamido)pyridin-3-yl)amino)pyridin-3-yl)-N,N-dimethylbenzamide], for which the IC50 at PIP4K2B, at PIP4K2A [1] and at PIP4K2A [2] was 10 to 100 nM each time.

For the molecule `CN(C)C/C=C/C(=O)NCCOCCOCCC(=O)Nc1cccc(C(=O)Nc2cncc(Nc3ccc(-c4ccc(C(=O)N(C)C)cc4)cn3)c2)c1` [Example 114, (E)-N,N-dimethyl-4-(6-((5-(3-(2-methyl-6-oxo-10,13-dioxa-2,7-diazahexadec-4-en-16-amido)benzamido)pyridin-3-yl)amino)pyridin-3-yl)benzamide], the IC50 at PIP4K2B lay within 10 to 100 nM; at PIP4K2A [1], 10 to 100 nM; on PIP4K2A [2] it was 100 to 1000 nM.

For `CN(C)C(=O)c1ccc(-c2ccc(Nc3cncc(NC(=O)c4ccc(N)cc4)c3)nc2)cc1` [Example 116, 4-(6-((5-(4-aminobenzamido)pyridin-3-yl)amino)pyridin-3-yl)-N,N-dimethylbenzamide], the IC50 on PIP4K2B, at PIP4K2A [1] and against PIP4K2A [2] was 10 to 100 nM in each case.

The IC50 is the concentration that gives 50% inhibition.
